Source: ChEMBL document CHEMBL1201862, “PubChem BioAssay data set” (2004)
Active and inactive are the calls of the source.

Key:
[1] = target: Lysine-specific demethylase 4C (Homo sapiens, UniProt Q9H3R0); test: inhibition of JMJD2C H3K9me3 demethylation – biochemical, DELFIA europium, cherry-picked samples, dose response (AID 488835); assay type: functional
[2] = target: T1, Mannose-6-phosphate isomerase (Homo sapiens, UniProt P34949); test: MPI inhibition at elevated mannose 6-phosphate – biochemical, fluorescence intensity, high mannose 6-phosphate, primary screen (AID 1220)
T1 sequence (P34949 whole entry): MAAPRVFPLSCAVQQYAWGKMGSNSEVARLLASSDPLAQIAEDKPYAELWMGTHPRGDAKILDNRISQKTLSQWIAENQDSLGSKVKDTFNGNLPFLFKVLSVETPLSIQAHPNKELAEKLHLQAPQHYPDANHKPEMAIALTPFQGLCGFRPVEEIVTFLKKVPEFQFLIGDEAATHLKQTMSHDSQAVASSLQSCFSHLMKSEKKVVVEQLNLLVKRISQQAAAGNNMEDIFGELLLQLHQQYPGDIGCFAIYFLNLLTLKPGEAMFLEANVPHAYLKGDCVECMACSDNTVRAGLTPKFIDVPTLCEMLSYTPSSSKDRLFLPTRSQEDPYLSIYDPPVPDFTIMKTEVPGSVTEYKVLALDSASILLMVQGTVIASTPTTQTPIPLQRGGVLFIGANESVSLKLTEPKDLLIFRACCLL

[3] = target: Lysine-specific demethylase 4A (Homo sapiens, UniProt O75164); test: inhibition of JMJD2A H3K9me3 demethylation – biochemical, DELFIA europium, cherry-picked samples, selectivity assay for GASC-1 inhibitor project, dose response (AID 488840)
Chain of Lysine-specific demethylase 4A (O75164 whole entry): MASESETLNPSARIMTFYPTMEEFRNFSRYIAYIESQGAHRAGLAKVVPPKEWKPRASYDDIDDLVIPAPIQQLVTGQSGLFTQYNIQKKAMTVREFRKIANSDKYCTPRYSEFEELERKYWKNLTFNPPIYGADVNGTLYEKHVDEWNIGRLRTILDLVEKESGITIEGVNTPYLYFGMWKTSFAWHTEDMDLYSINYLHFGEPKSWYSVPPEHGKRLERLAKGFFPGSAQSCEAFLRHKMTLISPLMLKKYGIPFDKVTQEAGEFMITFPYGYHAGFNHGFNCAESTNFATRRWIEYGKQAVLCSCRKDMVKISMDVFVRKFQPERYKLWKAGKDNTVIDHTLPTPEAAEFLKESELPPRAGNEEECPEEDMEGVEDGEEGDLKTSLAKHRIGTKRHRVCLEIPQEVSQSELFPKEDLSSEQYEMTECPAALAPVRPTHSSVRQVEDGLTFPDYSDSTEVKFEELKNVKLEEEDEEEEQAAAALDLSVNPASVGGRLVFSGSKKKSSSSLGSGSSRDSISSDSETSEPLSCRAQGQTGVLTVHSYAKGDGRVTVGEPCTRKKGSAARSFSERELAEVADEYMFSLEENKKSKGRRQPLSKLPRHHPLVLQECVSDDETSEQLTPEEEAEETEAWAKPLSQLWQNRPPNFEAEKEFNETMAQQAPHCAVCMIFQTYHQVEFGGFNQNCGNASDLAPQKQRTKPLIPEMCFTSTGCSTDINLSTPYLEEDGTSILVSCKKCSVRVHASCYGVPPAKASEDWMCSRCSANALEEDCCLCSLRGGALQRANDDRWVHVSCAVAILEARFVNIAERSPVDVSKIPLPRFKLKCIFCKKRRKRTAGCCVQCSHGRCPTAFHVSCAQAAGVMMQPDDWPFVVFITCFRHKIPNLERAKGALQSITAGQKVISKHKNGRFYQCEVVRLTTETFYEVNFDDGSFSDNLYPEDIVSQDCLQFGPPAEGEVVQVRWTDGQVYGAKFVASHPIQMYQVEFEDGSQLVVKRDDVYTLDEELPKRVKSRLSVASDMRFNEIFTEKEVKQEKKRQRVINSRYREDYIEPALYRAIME

[4] = antibacterial activity against E. coli NEB5alpha – luminescence, counter-screen for MEX-5/POS-1 RNA-binding inhibitor project, dose response (AID 1959); assay type: functional
Exodeoxyribonuclease V = Exodeoxyribonuclease V (Escherichia coli (strain K12), UniProt P04993+P07648+P08394); test: RecBCD inhibition via phage-restricted bacterial growth – absorbance, V66 E. coli, mutant T4 phage, counter-screen for AddAB inhibitor project, dose response (AID 492957); assay type: functional, cell-based, Escherichia coli str. K-12 substr. MG1655
Chain of Exodeoxyribonuclease V (P04993 whole entry): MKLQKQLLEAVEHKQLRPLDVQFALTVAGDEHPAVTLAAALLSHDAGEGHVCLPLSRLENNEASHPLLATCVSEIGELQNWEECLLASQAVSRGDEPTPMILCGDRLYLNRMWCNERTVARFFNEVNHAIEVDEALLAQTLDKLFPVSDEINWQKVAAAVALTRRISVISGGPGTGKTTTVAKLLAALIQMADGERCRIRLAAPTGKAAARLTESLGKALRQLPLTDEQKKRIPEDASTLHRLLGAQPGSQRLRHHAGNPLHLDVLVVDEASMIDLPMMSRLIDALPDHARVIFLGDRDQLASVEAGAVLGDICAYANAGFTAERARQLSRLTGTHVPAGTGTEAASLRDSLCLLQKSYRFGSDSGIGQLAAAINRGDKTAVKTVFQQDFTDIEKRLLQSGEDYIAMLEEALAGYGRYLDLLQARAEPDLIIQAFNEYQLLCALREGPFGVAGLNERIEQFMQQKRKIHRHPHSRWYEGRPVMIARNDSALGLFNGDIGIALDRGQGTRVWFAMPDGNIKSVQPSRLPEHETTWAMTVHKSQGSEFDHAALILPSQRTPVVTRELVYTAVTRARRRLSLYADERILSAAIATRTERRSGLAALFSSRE
Chain of Exodeoxyribonuclease V (P07648 whole entry): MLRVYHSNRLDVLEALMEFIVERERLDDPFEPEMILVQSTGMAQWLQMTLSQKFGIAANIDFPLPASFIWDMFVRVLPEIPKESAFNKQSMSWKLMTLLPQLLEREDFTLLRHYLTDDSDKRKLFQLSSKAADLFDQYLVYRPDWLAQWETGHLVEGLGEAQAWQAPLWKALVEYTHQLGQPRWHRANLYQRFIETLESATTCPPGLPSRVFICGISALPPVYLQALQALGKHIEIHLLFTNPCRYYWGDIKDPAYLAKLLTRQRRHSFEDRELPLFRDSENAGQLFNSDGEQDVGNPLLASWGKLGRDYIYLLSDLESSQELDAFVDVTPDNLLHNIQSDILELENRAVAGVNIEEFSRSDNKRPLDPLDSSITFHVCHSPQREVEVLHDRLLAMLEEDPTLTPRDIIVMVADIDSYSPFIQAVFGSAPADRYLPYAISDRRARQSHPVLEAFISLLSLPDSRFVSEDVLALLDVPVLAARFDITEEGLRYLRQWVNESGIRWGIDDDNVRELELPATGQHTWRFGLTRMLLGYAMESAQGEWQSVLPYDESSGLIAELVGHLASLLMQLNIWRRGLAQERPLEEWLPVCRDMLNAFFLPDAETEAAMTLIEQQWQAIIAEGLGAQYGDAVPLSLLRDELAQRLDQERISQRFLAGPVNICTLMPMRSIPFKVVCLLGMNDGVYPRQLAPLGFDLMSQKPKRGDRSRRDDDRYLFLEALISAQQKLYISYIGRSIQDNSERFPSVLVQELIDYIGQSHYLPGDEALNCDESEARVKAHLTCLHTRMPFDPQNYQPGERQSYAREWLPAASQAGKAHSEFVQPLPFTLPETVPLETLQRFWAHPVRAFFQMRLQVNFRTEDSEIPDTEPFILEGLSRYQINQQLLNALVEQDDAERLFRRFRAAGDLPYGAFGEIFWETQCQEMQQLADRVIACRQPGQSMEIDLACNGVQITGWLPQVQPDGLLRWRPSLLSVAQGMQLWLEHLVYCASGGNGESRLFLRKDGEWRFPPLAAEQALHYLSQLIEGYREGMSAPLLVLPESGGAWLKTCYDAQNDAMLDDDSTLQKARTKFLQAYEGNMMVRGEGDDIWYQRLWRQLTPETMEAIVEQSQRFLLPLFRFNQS
Chain of Exodeoxyribonuclease V (P08394 whole entry): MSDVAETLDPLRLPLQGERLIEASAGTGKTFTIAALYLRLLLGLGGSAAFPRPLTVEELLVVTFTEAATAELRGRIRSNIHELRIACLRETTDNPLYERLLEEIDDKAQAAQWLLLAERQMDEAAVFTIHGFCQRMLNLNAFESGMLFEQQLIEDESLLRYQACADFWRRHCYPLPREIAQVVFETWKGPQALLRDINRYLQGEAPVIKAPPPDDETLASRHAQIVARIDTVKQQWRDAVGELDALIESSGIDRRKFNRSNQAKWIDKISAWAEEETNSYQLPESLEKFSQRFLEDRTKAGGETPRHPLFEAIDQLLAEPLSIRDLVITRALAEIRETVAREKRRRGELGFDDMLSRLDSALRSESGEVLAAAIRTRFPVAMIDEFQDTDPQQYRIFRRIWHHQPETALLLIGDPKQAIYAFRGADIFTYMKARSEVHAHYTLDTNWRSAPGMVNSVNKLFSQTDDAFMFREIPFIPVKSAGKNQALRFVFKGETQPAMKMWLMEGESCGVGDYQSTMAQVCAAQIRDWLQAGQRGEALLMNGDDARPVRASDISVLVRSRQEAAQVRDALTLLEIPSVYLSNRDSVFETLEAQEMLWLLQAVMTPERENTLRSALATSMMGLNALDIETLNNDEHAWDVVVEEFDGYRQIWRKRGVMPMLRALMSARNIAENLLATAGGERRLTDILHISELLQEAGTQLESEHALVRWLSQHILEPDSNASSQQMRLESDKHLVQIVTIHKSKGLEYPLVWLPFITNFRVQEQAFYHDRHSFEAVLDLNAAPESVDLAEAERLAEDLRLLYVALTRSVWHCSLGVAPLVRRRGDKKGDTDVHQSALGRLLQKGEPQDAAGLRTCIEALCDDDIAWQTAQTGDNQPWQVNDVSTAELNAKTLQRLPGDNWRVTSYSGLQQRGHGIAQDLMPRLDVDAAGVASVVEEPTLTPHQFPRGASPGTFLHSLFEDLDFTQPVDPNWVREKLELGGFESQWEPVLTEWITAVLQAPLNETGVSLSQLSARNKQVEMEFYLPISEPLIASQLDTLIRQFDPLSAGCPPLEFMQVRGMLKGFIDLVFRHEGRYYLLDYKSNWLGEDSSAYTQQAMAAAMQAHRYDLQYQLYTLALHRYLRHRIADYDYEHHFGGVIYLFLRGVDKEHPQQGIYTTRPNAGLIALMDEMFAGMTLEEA

[5] = Counterscreen for AddAB inhibitors: absorbance-based bacterial cell-based high throughput dose response assay for inhibitors of bacterial viability. [Related pubchem assays (depositor defined):AID435030, AID449728, AID449731, AID488942, AID488955, AID488956]; assay type: functional
[6] = target: T2, Zinc finger protein mex-5 (Caenorhabditis elegans, UniProt Q9XUB2); test: potency of MEX-5 RNA-binding blockers – biochemical, C. elegans, fluorescence polarization, dose response (AID 1960)
T2 sequence (Q9XUB2 whole entry): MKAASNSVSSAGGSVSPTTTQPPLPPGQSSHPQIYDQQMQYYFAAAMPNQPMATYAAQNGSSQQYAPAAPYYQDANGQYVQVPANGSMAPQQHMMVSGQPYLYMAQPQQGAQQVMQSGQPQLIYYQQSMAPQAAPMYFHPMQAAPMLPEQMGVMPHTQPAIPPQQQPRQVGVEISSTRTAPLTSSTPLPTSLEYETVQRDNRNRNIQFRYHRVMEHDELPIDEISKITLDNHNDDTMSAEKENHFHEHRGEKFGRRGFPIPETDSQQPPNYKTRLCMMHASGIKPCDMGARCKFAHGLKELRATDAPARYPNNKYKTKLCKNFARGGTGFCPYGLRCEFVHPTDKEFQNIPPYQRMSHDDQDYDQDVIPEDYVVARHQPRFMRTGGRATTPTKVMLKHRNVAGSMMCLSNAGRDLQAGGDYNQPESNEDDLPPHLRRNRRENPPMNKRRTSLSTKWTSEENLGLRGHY

[7] = target: T3, RNA-binding protein pos-1 (Caenorhabditis elegans, UniProt G5EF15); test: disruptors of C. elegans POS-1 RNA interaction – biochemical, fluorescence polarization, dose response (AID 1964);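 note: purified POS-1 fused to maltose binding protein made in E. coli; potency of compounds blocking POS-1 binding to fluorescent RNA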
T3 sequence (G5EF15 whole entry): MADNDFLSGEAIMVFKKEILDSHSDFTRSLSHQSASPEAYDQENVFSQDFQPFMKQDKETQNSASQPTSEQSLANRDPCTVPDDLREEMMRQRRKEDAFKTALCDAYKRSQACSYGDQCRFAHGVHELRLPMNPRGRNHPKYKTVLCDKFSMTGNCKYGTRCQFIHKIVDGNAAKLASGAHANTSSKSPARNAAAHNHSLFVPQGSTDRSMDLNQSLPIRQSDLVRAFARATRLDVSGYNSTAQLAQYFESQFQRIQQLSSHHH

[8] = target: T4, Small ubiquitin-related modifier 2 (Homo sapiens, UniProt P61956); test: disruption of SUMO2 interaction with SIM peptide – biochemical, fluorescence polarization, uHTS hits, selectivity assay for SUMO1 interaction inhibitor project, dose response (AID 624385); assay type: functional; settings: read-out: IC50_Mean
T4 sequence (P61956 whole entry): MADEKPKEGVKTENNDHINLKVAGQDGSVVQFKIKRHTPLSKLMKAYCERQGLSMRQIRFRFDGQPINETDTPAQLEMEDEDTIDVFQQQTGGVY

Genome polyprotein = Genome polyprotein (dengue virus type 2, UniProt P29990); test: flavivirus cap methylation enzyme inhibition – biochemical, confirmation dose response, primary screen (AID 588689); assay type: functional
[9] = target: T5, Calpain-2 catalytic subunit (Sus scrofa, UniProt P43367); test: m-calpain protease blockers, concentration series – biochemical, fluorogenic peptide substrate, dose response (AID 1420); assay type: functional
T5 sequence (P43367 whole entry): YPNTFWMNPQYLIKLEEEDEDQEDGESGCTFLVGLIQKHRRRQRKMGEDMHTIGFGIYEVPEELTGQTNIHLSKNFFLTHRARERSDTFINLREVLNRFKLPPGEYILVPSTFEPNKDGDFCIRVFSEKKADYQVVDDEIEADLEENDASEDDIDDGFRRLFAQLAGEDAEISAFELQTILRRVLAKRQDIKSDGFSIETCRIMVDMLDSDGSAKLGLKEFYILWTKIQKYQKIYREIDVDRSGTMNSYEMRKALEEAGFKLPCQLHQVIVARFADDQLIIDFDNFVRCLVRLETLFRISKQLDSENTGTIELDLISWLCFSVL

[10] = target: T4, Small ubiquitin-related modifier 2; test: SUMO2 binding disruption by SUMO1 hits – biochemical, FRET, human SUMO2, uHTS hits, selectivity assay for SUMO1 interaction inhibitor project, dose response (AID 624384); assay type: functional; settings: read-out: IC50_Mean
[11] = target: T6, Dual specificity protein phosphatase 3 (Homo sapiens, UniProt P51452); test: VHR1 phosphatase inhibitors, biochemical (AID 1878)
T6 sequence (P51452 whole entry): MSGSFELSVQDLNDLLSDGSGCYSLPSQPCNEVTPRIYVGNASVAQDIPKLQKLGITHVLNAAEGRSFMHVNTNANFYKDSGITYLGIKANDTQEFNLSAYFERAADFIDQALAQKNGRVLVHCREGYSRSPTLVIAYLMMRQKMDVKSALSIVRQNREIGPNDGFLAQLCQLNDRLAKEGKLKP

[12] = target: T7, Small ubiquitin-related modifier 1 (Homo sapiens, UniProt P63165); test: SUMO1 protein-protein binding blockers, potency – biochemical, FRET, dose response (AID 624383); assay type: functional; settings: read-out: IC50_Mean
T7 sequence (P63165 whole entry): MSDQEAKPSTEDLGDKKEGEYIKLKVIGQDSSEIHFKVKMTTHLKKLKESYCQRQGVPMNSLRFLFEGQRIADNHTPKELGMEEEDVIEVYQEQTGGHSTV

[13] = target: T8, Dual specificity protein phosphatase 6 (Rattus norvegicus, UniProt Q64346); test: inhibition of rat DUSP6 enzyme activity – biochemical, in vitro, primary screen (AID 425)
T8 sequence (Q64346 whole entry): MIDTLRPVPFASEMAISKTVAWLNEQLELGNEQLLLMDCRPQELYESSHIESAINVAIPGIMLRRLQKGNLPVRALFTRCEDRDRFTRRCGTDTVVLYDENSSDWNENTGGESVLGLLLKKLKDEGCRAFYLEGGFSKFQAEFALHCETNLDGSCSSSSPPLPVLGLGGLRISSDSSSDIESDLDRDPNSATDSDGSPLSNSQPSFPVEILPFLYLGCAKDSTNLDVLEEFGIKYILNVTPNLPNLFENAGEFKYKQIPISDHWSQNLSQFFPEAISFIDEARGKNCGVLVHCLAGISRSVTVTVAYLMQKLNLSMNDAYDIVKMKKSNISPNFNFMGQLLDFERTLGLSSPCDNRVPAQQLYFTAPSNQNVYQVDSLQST

Streptococcus = test: GAS UMAA2166 growth inhibition – luminescence, BacTiterGlo, counter-screen for streptokinase expression inhibitor project, dose response (AID 1915); assay type: functional, organism-based;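 note: potency for reduction of bacterial viability or growth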
[14] = target: T6, Dual specificity protein phosphatase 3; test: VHR1 phosphatase inhibitors, primary screen, biochemical, absorbance, uHTS (AID 1654)
Streptokinase A = target: T9, Streptokinase A (Streptococcus pyogenes serotype M1, UniProt P10520); test: viability-normalized secreted streptokinase activity reduction – plasminogen activation absorbance, OD405, dose response (AID 1914); assay type: functional, Streptococcus pyogenes M1 GAS;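 note: secreted streptokinase activity via plasminogen activation per viability signal from cell pellet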
T9 sequence (P10520 whole entry): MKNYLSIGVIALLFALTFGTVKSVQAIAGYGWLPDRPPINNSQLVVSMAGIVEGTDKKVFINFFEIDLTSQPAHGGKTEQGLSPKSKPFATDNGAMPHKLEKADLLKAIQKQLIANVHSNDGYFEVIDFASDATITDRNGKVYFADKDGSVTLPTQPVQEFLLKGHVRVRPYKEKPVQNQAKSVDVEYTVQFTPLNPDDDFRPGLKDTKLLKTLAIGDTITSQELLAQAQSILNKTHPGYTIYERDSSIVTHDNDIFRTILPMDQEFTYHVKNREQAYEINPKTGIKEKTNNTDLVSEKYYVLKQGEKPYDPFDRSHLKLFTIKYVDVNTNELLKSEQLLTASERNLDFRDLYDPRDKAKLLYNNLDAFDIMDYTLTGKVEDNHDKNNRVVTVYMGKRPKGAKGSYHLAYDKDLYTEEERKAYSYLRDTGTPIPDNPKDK

[15] = target: T7, Small ubiquitin-related modifier 1; test: SUMO1 protein interaction blockers, potency – biochemical, fluorescence polarization, uHTS hits, dose response (AID 624382); assay type: functional; settings: read-out: IC50_Mean
[16] = tested on: Streptococcus sp. 'group A'; test: Streptococcus pyogenes SK(-)GAS viability under kanamycin – luminescence, BacTiterGlo, confirmation, counter-screen for streptokinase expression inhibitor project, dose response (AID 1900); assay type: functional, organism-based

CCOC(=O)C1=C(C)NC(=O)NC1c1c(C)nn(-c2ccccc2)c1Cl (stereo not given)
active: AC50 [1] 1.22 µM | IC50 [2] 5.4 µM | AC50 [3] 8.63 µM

COc1ccc2[nH]c3c(c2c1)CCNC3c1ccc([N+](=O)[O-])o1 (stereo not given)
inconclusive: EC50 [6] 4.34 µM | EC50 [7] 5.82 µM
active: EC50 [4] 34.1 µM
inactive: IC50 (Exodeoxyribonuclease V) > 119 µM | IC50 [5] > 119 µM

CSc1nc(SCC(=O)O)c2sc3nc(-c4ccccc4)c4c(c3c2n1)CCC4
3.74 µM (not active): IC50 [9]
active: IC50 [8] 5.38 µM | IC50 (Genome polyprotein) 48.9 µM | IC50 [10] 5.26 µM | IC50 [11] 3.72 µM | IC50 [12] 5.16 µM | IC50 [13] 96.5 µM | EC50 (Streptococcus) 6.54 µM | IC50 [14] 5.06 µM | EC50 (Streptokinase A) 7.33 µM | IC50 [15] 2.06 µM | EC50 [16] 1.41 µM
